Results on two compounds are retold here after patent US20230416291A1, “HIGH-PURITY ß-NICOTINAMIDE MONONUCLEOTIDE (NMN) AND METHOD FOR PRODUCING SAME” (MIRAILAB BIOSCIENCE INC., priority 2020, published 2023).

A short description of series [1]: Stability test on NMN produced by a conventional method (Comparative Examples). Format: physicochemical. An excerpt: Results of a stability test on NMN produced by a conventional method (method involving neither the step IV nor the step V according to the present invention) are shown as Comparative Examples in Table 2.
A short description of series [2]: Stability of high-purity βNMN on preservation, purity by LC-UV area normalization. In kind it is physicochemical. The settings on record: for Purity, Average value: three samples. As for the experimental part:
In the area normalization method based on LC-UV, a NMN sample is dissolved in an appropriate amount of water and subjected to LC-UV measurement at a detection wavelength of 266 nm using an apparatus, for example, LC-30AD (manufactured by Shimadzu Corp.). The ratio (%) of the area of the main component to the total area of chromatogram peaks of the obtained sample can be regarded as the purity (%) of βNMN. In the area normalization method based on LC-UV, the high-purity βNMN obtained in the section (5) was dissolved in an appropriate amount of water and subjected to LC-UV measurement under the following conditions. • Apparatus name: LC-30AD (manufactured by Shimadzu Corp.) • Detection wavelength: 266 nm The ratio (%) of the area of the main component to the total area of chromatogram peaks of the obtained sample was regarded as the purity (%) of βNMN. As a result, the purity of the high-purity βNMN obtained in the section (5) was 99.2%. The high-purity βNMN obtained in the section (5) was preserved at 4° C., 25° C., or 40° C. and examined for its stability. Each sample was provided as three samples per condition. The purity of βNMN in each sample during preservation, 1 month later, 2 months later, and 3 months later was measured by the area normalization method based on LC-UV.

`NC(=O)c1ccc[n+]([C@@H]2O[C@H](COP(=O)([O-])O)[C@@H](O)[C@H]2O)c1` [NMN produced by a conventional method, nicotinamide mononucleotide]: the Purity in series [1] (4° C., 1 day later) was determined as 97.92%; in series [1] (4° C., 2 days later), 97.78%; in series [1] (4° C., 3 days later) it was 97.60%; in series [1] (4° C., 7 days later), 97.57%; in series [1] (4° C., 15 days later), 97.54%; in series [1] (4° C., 30 days later), 97.26%. The Purity in series [1] (4° C., At start of preservation) turned out to be 97.94%; in series [1] (25° C., 1 day later) it was 97.11%; in series [1] (25° C., 2 days later), 96.04%; in series [1] (25° C., 3 days later), 95.98%; in series [1] (25° C., 7 days later), 90.55%; in series [1] (25° C., 15 days later), 81.74%. For the same compound, the Purity in series [1] (25° C., 30 days later) came out at 65.66%; in series [1] (25° C., At start of preservation), 97.94%. For the same compound, in series [1] (preserved at 4° C. for 30 days), the Stability in words entry is given as “able to maintain the purity obtained at the start of preservation for 30 days”.

With `NC(=O)c1ccc[n+]([C@@H]2O[C@H](COP(=O)([O-])O)[C@@H](O)[C@H]2O)c1` [high-purity βNMN, β-nicotinamide mononucleotide], the “Purity maintained on preservation” value in series [2] (for 3 months at any temperature of 4° C., 25° C., and 40° C.) was at least 99%. Further, the “Purity, Average value” came out at 99.64% in series [2] (preserved at 4° C., 1 month later); 99.51% in series [2] (preserved at 4° C., 2 months later); 99.66% in series [2] (preserved at 4° C., 3 months later); 99.69% in series [2] (preserved at 4° C., During preservation); 99.26% in series [2] (preserved at 25° C., 1 month later); 99.45% in series [2] (preserved at 25° C., 2 months later). In addition, the “Purity, Average value” in series [2] (preserved at 25° C., 3 months later) amounted to 99.57%; in series [2] (preserved at 25° C., During preservation), 99.69%; in series [2] (preserved at 40° C., 1 month later), 99.51%; in series [2] (preserved at 40° C., 2 months later) it was 99.27%; in series [2] (preserved at 40° C., 3 months later) it was 99.35%; in series [2] (preserved at 40° C., During preservation) it was 99.69%.
